Results taken from patent EP0090603A2, “Antibacterial compounds” (BEECHAM GROUP PLC, priority 1982, dated 1983).
Values after ≈ are worked out from the molar mass of the structure shown.

Experiments:
Bord. bronchiseptica B08 = assay: MIC against Veterinary Bacteria, in vitro agar dilution; conditions: Bordetella bronchiseptica, B08, 18 h, read-out: MIC's against Bord. bronchiseptica B08
Procedure: (§1) The activity of the compounds of the Examples against various veterinarily important bacteria, was assayed in vitro using two-fold serial dilutions in Diagnostic Sensitivity Test Agar inoculated with 10^4 organisms.

M. suipneumoniae TAM 6N = assay: MIC against Mycoplasma, in vitro agar dilution; assay type: cell-based; conditions: Mesomycoplasma hyopneumoniae, TAM6N, 144 h; Friis broth solidified with 0.9% agarose, 10^3 to 10^5 C.F.U., 6 days at 37°C; read-out: MIC's against M. suipneumoniae TAM 6N
[1] = test system: Strep. suis (group D) SPS11; assay: MIC against Veterinary Bacteria, in vitro agar dilution; conditions: Streptococcus suis, 18 h, read-out: MIC's against Strep. suis (group D) SPS11
Procedure: as §1

[2] = test system: Staph. aureus 152 (pen. sens); assay: as above; conditions: Staphylococcus aureus, 18 h, read-out: MIC's against Staph. aureus 152 (pen. sens)
Procedure: as §1

M. suipneumoniae HK(2) = assay: MIC against Mycoplasma, in vitro agar dilution; assay type: cell-based; conditions: Mesomycoplasma hyopneumoniae, 144 h; Friis broth solidified with 0.9% agarose, 10^3 to 10^5 C.F.U., 6 days at 37°C; read-out: MIC's against M. suipneumoniae HK(2)
[3] = test system: M. hyosynoviae ATCC 25591; assay: MIC against Mycoplasma, in vitro agar dilution; assay type: cell-based; conditions: 144 h; Friis broth solidified with 0.9% agarose, 10^3 to 10^5 C.F.U., 6 days at 37°C; read-out: MIC's against M. hyosynoviae ATCC 25591
M. hyorhinis ATCC 25021 = assay: MIC against Mycoplasma, in vitro agar dilution; assay type: cell-based; conditions: Mesomycoplasma hyorhinis, ATCC25021, 144 h; Friis broth solidified with 0.9% agarose, 10^3 to 10^5 C.F.U., 6 days at 37°C; read-out: MIC's against M. hyorhinis ATCC 25021
S. dublin S7 = assay: MIC against Veterinary Bacteria, in vitro agar dilution; conditions: Salmonella enterica, S7, 18 h, read-out: MIC's against S. dublin S7
Procedure: as §1

Past. multocida PA1 = assay: as above; conditions: Pasteurella multocida, PA1, 18 h, read-out: MIC's against Past. multocida PA1
Procedure: as §1

[4] = test system: M. suipneumoniae ATCC 25095; assay: MIC against Mycoplasma, in vitro agar dilution; assay type: cell-based; conditions: Mesomycoplasma hyopneumoniae, ATCC25095, 144 h; Friis broth solidified with 0.9% agarose, 10^3 to 10^5 C.F.U., 6 days at 37°C; read-out: MIC's against M. suipneumoniae ATCC 25095
[5] = test system: M. suipneumoniae PW/C/210; assay: MIC against Mycoplasma, in vitro agar dilution; assay type: cell-based; conditions: Mesomycoplasma hyopneumoniae, 144 h; Friis broth solidified with 0.9% agarose, 10^3 to 10^5 C.F.U., 6 days at 37°C; read-out: MIC's against M. suipneumoniae PW/C/210
M. dispar NCTC 10125 = assay: MIC against Mycoplasma, in vitro agar dilution; assay type: cell-based; conditions: 144 h; Friis broth solidified with 0.9% agarose, 10^3 to 10^5 C.F.U., 6 days at 37°C; read-out: MIC's against M. dispar NCTC 10125
M. bovis NCTC 10131 = assay: microbe, parasite or virus in culture; assay type: cell-based; conditions: NCTC10131, 144 h, read-out: MIC's against M. bovis NCTC 10131
[6] = test system: Erysipelothrix rhusiopathiae NCTC 8163; assay: MIC against Veterinary Bacteria, in vitro agar dilution; conditions: Erysipelothrix rhusiopathiae, NCTC8163, 18 h, read-out: MIC's against Erysipelothrix rhusiopathiae NCTC 8163
Procedure: as §1

M. suipneumoniae UCD 1 = assay: MIC against Mycoplasma, in vitro agar dilution; assay type: cell-based; conditions: Mesomycoplasma hyopneumoniae, UCD1, 144 h; Friis broth solidified with 0.9% agarose, 10^3 to 10^5 C.F.U., 6 days at 37°C; read-out: MIC's against M. suipneumoniae UCD 1
Strep. agalactiae SPA1 = assay: MIC against Veterinary Bacteria, in vitro agar dilution; conditions: Streptococcus agalactiae, SPA1, 18 h, read-out: MIC's against Strep. agalactiae SPA1
Procedure: as §1

Past. haemolytica PA5 = assay: as above; conditions: Mannheimia haemolytica, PA5, 18 h, read-out: MIC's against Past. haemolytica PA5
Procedure: as §1

E. coli E1 = assay: as above; conditions: Escherichia coli, E1, 18 h, read-out: MIC's against E. coli E1
Procedure: as §1

[7] = test system: M. suipneumoniae NCTC 10110; assay: MIC against Mycoplasma, in vitro agar dilution; assay type: cell-based; conditions: Mesomycoplasma hyopneumoniae, NCTC10110, 144 h; Friis broth solidified with 0.9% agarose, 10^3 to 10^5 C.F.U., 6 days at 37°C; read-out: MIC's against M. suipneumoniae NCTC 10110
[8] = test system: M. bovigenitalium ATCC 14173; assay: MIC against Mycoplasma, in vitro agar dilution; assay type: cell-based; conditions: 144 h; Friis broth solidified with 0.9% agarose, 10^3 to 10^5 C.F.U., 6 days at 37°C; read-out: MIC's against M. bovigenitalium ATCC 14173
M. gallisepticum S6 = assay: MIC against Mycoplasma, in vitro agar dilution; assay type: cell-based; conditions: Mycoplasmoides gallisepticum, S6, 144 h; Friis broth solidified with 0.9% agarose, 10^3 to 10^5 C.F.U., 6 days at 37°C; read-out: MIC's against M. gallisepticum S6
M. suipneumoniae MS 16 = assay: MIC against Mycoplasma, in vitro agar dilution; assay type: cell-based; conditions: Mesomycoplasma hyopneumoniae, MS16, 144 h; Friis broth solidified with 0.9% agarose, 10^3 to 10^5 C.F.U., 6 days at 37°C; read-out: MIC's against M. suipneumoniae MS 16
Strep. uberis SPU1 = assay: MIC against Veterinary Bacteria, in vitro agar dilution; conditions: Streptococcus uberis, SPU1, 18 h, read-out: MIC's against Strep. uberis SPU1
Procedure: as §1

M. suipneumoniae JF 435 = assay: MIC against Mycoplasma, in vitro agar dilution; assay type: cell-based; conditions: Mesomycoplasma hyopneumoniae, JF435, 144 h; Friis broth solidified with 0.9% agarose, 10^3 to 10^5 C.F.U., 6 days at 37°C; read-out: MIC's against M. suipneumoniae JF 435

| SMILES | MIC (Bord. bronchiseptica B08) [mg/L] | MIC (M. suipneumoniae TAM 6N) [mg/L] | MIC [1] [mg/L] | MIC [2] [mg/L] | MIC (M. suipneumoniae HK(2)) [mg/L] | MIC [3] [mg/L] | MIC (M. hyorhinis ATCC 25021) [mg/L] | MIC (S. dublin S7) [mg/L] | MIC (Past. multocida PA1) [mg/L] | MIC [4] [mg/L] | MIC [5] [mg/L] | MIC (M. dispar NCTC 10125) [mg/L] | MIC (M. bovis NCTC 10131) [mg/L] | MIC [6] [mg/L] | MIC (M. suipneumoniae UCD 1) [mg/L] | MIC (Strep. agalactiae SPA1) [mg/L] | MIC (Past. haemolytica PA5) [mg/L] | MIC (E. coli E1) [mg/L] | MIC [7] [mg/L] | MIC [8] [mg/L] | further results |
| --- | --- | --- | --- | --- | --- | --- | --- | --- | --- | --- | --- | --- | --- | --- | --- | --- | --- | --- | --- | --- | --- |
| COC(=O)C(C)=C(C)CC1OCC(CC2OC2C(C)C(C)O)C(O)C1O [Example 2, Methyl 4-[5S-(2S,3S-epoxy-5S-hydroxy-4S-methylhexyl)-3R,4R-dihydroxytetrahydropyran-2S-yl]-2,3-dimethylbut-2(E)-enoate] | > 80 | 10 (≈ 26.8 µM) | > 80 | 5 (≈ 13.4 µM) | 10 (≈ 26.8 µM) | 5 (≈ 13.4 µM) | 5 (≈ 13.4 µM) | > 80 | 10 (≈ 26.8 µM) | 5 (≈ 13.4 µM) | 5 (≈ 13.4 µM) | 1 (≈ 2.68 µM) | 0.25 (≈ 0.671 µM) | > 80 | 10 (≈ 26.8 µM) | 80 (≈ 215 µM) | 40 (≈ 107 µM) | > 80 | 5 (≈ 13.4 µM) | 0.5 (≈ 1.34 µM) | MIC (M. gallisepticum S6): > 10 mg/L; MIC (M. suipneumoniae MS 16): 5 mg/L (≈ 13.4 µM); MIC (Strep. uberis SPU1): 20 mg/L (≈ 53.7 µM); MIC (M. suipneumoniae JF 435): 10 mg/L (≈ 26.8 µM) |
| CCOC(=O)C(C)=C(C)CC1OCC(CC2OC2C(C)C(C)O)C(O)C1O [Example 1, Ethyl 4-[5S-(2S,3S-epoxy-5S-hydroxy-4S-methylhexyl)-3R,4R-dihydroxytetrahydropyran-2S-yl]-2,3-dimethylbut-2(E)-enoate] | > 80 | 2.5 (≈ 6.47 µM) | > 80 | 0.625 (≈ 1.62 µM) | 1 (≈ 2.59 µM) | 1 (≈ 2.59 µM) | 0.5 (≈ 1.29 µM) | > 80 | 2.5 (≈ 6.47 µM) | 1 (≈ 2.59 µM) | 0.5 (≈ 1.29 µM) | 0.25 (≈ 0.647 µM) | 0.05 (≈ 0.129 µM) | 80 (≈ 207 µM) | 2.5 (≈ 6.47 µM) | 5 (≈ 12.9 µM) | 20 (≈ 51.7 µM) | > 80 | 1 (≈ 2.59 µM) | 0.05 (≈ 0.129 µM) | MIC (M. gallisepticum S6): > 10 mg/L; MIC (M. suipneumoniae MS 16): 0.5 mg/L (≈ 1.29 µM); MIC (Strep. uberis SPU1): 1.25 mg/L (≈ 3.23 µM); MIC (M. suipneumoniae JF 435): 1 mg/L (≈ 2.59 µM) |
| CC(CC1OCC(CC2OC2C(C)C(C)O)C(O)C1O)=C(C)C(=O)OCc1cccc([N+](=O)[O-])c1 [Example 3, m-Nitrobenzyl 4-[5S-(2S,3S-epoxy-5S-hydroxy-4S-methylhexyl)-3R,4R-dihydroxytetrahydropyran-2S-yl]-2,3-di-methylbut-2(E)-enoate] | 80 (≈ 162 µM) | 0.1 (≈ 0.203 µM) | 10 (≈ 20.3 µM) | 1.25 (≈ 2.53 µM) | 0.1 (≈ 0.203 µM) | 0.25 (≈ 0.507 µM) | 0.025 (≈ 0.0507 µM) | > 80 | 2.5 (≈ 5.07 µM) | 0.025 (≈ 0.0507 µM) | 0.025 (≈ 0.0507 µM) | < 0.01 | 0.025 (≈ 0.0507 µM) | 40 (≈ 81 µM) | 0.05 (≈ 0.101 µM) | 1.25 (≈ 2.53 µM) | 10 (≈ 20.3 µM) | > 80 | 0.05 (≈ 0.101 µM) | 0.025 (≈ 0.0507 µM) | MIC (M. gallisepticum S6): 5 mg/L (≈ 10.1 µM); MIC (M. suipneumoniae MS 16): 0.025 mg/L (≈ 0.0507 µM); MIC (Strep. uberis SPU1): 0.156 mg/L (≈ 0.316 µM); MIC (M. suipneumoniae JF 435): 0.1 mg/L (≈ 0.203 µM) |
| CC(CC1OCC(CC2OC2C(C)C(C)O)C(O)C1O)=C(C)C(=O)O [Example 4, Sodium 4-[5S-(2S, 35-epoxy-5S-hydroxy-4S-methylhexyl)-3R,4R-dihydroxytetrahydropyran-2S-yl]-2,3-dimethylbut-2(E)-enoate] | > 80 | 0.25 | 20 | 1.25 | 0.25 | 0.25 | 0.1 | > 80 | 5 | 0.25 | 0.1 | 0.05 | 0.025 | 80 | 0.25 | 1.25 | 10 | > 80 | 0.25 | 0.05 | MIC (M. gallisepticum S6): 5 mg/L; MIC (M. suipneumoniae MS 16): 0.1 mg/L; MIC (Strep. uberis SPU1): 0.156 mg/L; MIC (M. suipneumoniae JF 435): 0.25 mg/L |
